How the values were obtained:
Chow-Fed Rat = experiment: Effects of Treatment on Lipid and Lipoprotein Parameters in the Chow-Fed Rat; assay type: in vivo; design: TG (Triglyceride) / Cholesterol (Total cholesterol) / VLDL (Very low-density cholesterol) / LDL (Low-density cholesterol) / HDL (High-density cholesterol): unit not given here
man = conditions: in man, Helsinki Heart Study; cited from earlier work

SMILES	Cholesterol (Total cholesterol) (Chow-Fed Rat; 10 mg/kg)	HDL (High-density cholesterol) (Chow-Fed Rat; 10 mg/kg)	HDL/VLDL + LDL (HDL divided by the sum of VLDL and LDL) (Chow-Fed Rat; 10 mg/kg)	LDL (Low-density cholesterol) (Chow-Fed Rat; 10 mg/kg)	TG (Triglyceride) (Chow-Fed Rat; 10 mg/kg)	VLDL (Very low-density cholesterol) (Chow-Fed Rat; 10 mg/kg)	Cholesterol (Total cholesterol) (Chow-Fed Rat; 30 mg/kg)	HDL (High-density cholesterol) (Chow-Fed Rat; 30 mg/kg)	HDL/VLDL + LDL (HDL divided by the sum of VLDL and LDL) (Chow-Fed Rat; 30 mg/kg)	LDL (Low-density cholesterol) (Chow-Fed Rat; 30 mg/kg)	TG (Triglyceride) (Chow-Fed Rat; 30 mg/kg)	VLDL (Very low-density cholesterol) (Chow-Fed Rat; 30 mg/kg)	further results
CC(C)c1cc(C(C)C)c(CC(=O)NS(=O)(=O)Oc2c(C(C)C)cccc2C(C)C)c(C(C)C)c1 [Avisimbe]	36 ± 2.3	19.5 ± 1.7	1.2 ± 0.1	12.0 ± 1.1	85 ± 16.8	3.9 ± 0.7	37 ± 2.9	22.2 ± 1.8	1.6 ± 0.1	12.0 ± 0.8	65 ± 12.9	2.1 ± 0.6	
CC(C)(CCCCOCCCCC(C)(C)C(=O)O)C(=O)O [CI-1027]	89 ± 8.5	76 ± 7.1	6.8 ± 0.7	9.1 ± 1.1	60 ± 8.8	2.8 ± 0.8	119 ± 21	100 ± 14.8	9.4 ± 2.7	17.6 ± 6.1	27 ± 2.0	0.7 ± 0.2	Cholesterol (Total cholesterol) (Chow-Fed Rat; 3 mg/kg): 40 ± 1.4; HDL (High-density cholesterol) (Chow-Fed Rat; 3 mg/kg): 28 ± 1.0; HDL/VLDL + LDL (HDL divided by the sum of VLDL and LDL) (Chow-Fed Rat; 3 mg/kg): 2.4 ± 0.1; LDL (Low-density cholesterol) (Chow-Fed Rat; 3 mg/kg): 9.0 ± 0.5; TG (Triglyceride) (Chow-Fed Rat; 3 mg/kg): 70 ± 2.8; VLDL (Very low-density cholesterol) (Chow-Fed Rat; 3 mg/kg): 2.7 ± 0.3
Cc1ccc(C)c(OCCCC(C)(C)C(=O)O)c1 [gemfibrozil]													HDL-C (man): increased; LDL-C (man): decreased; incidence of coronary artery disease (man): reduced
